Patent US7638531B2, “Phenoxypiperidines and analogs thereof useful as histamine H3 antagonists” (Schering Corporation, priority 2005, dated 2009)

Experiments:
mice fed a high-fat diet = test: Diet-induced obesity in mice; assay type: in vivo; conditions: high-fat diet days 0 to 4, 10 mg/kg by gavage once daily for four days, versus vehicle control
Method: Lean mice (male, approx. 5 weeks of age, purchased from The Jackson Laboratory, Bar Harbor, Me.) were maintained in individual cages at 22° C. on a 12:12 hr light/dark cycle. The “treated” mice (N=12) were administered a Thiazole Derivative (10 mg/kg) by gavage once daily for four consecutive days. Control mice (N=12) were administered vehicle only, once daily for four days. Both control and treated mice were fed a high-fat diet from days 0 to 4 and body weight and food intake was monitored daily. The percent inhibition for weight gain and food intake was calculated by comparing the increase in weight gain and food intake in the treated mice to the increase in weight gain and food intake in the control mice.

[1] = target: T1, recombinant human H3 receptor, expressed in HEK-293 cells (Homo sapiens, UniProt Q9Y5N1); test: H3-receptor binding assay, recombinant human receptor; conditions: recombinant human receptor in HEK-293 membranes; 3 nM [3H]R-α-methyl histamine or [3H]Nα-methyl histamine, 30° C., 30 min
T1 construct: expressed in transfected cells; host or cells: HEK-293 (human embryonic kidney) cells
Method: (§1) The source of the H3 receptors in this experiment was guinea pig brain. Alternatively, the source of H3 receptors was recombinant human receptor, expressed in HEK-293 (human embryonic kidney) cells.
(§2) All compounds to be tested were dissolved in DMSO and then diluted into the binding buffer (50 mM Tris, pH 7.5) such that the final concentration was 2 μg/ml with 0.1% DMSO. Membranes were then added (400 μg of protein, 5 μg in the case of recombinant human receptor) to the reaction tubes. The reaction was started by the addition of 3 nM [^3H]R-α-methyl histamine (8.8 Ci/mmol) or 3 nM [^3H]N^α-methyl histamine (80 Ci/mmol) and continued under incubation at 30° C. for 30 min. Bound ligand was separated from unbound ligand by filtration, and the amount of radioactive ligand bound to the membranes was quantitated by liquid scintillation spectrometry. All incubations were performed in duplicate and the standard error was always less than 10%. Compounds that inhibited more than 70% of the specific binding of radioactive ligand to the receptor were serially diluted to determine a Ki (nM).

[2] = target: T2, H3 receptors, guinea pig brain (Cavia porcellus, UniProt Q9JI35); test: H3-receptor binding assay, guinea pig brain; conditions: guinea pig brain membranes; 3 nM [3H]R-α-methyl histamine or [3H]Nα-methyl histamine, 30° C., 30 min
T2 construct: The source of the H3 receptors in this experiment was guinea pig brain; from tissue; host or cells: guinea pig brain membranes
Method: as §1
The animals weighed 400-600 g. The brain tissue was homogenized with a solution of 50 mM Tris, pH 7.5. The final concentration of tissue in the homogenization buffer was 10% w/v. The homogenates were centrifuged at 1,000×g for 10 min. in order to remove clumps of tissue and debris. The resulting supernatants were then centrifuged at 50,000×g for 20 min. in order to sediment the membranes, which were next washed three times in homogenization buffer (50,000×g for 20 min. each). The membranes were frozen and stored at −70° C. until needed.
as §2, with “All incubations were performed in duplicate and the standard error was always less than 10%. Compounds that inhibited more than 70% of the specific binding of radioactive ligand to the receptor were serially diluted to determine a Ki (nM).” left out

T2 sequence (Q9JI35 whole entry): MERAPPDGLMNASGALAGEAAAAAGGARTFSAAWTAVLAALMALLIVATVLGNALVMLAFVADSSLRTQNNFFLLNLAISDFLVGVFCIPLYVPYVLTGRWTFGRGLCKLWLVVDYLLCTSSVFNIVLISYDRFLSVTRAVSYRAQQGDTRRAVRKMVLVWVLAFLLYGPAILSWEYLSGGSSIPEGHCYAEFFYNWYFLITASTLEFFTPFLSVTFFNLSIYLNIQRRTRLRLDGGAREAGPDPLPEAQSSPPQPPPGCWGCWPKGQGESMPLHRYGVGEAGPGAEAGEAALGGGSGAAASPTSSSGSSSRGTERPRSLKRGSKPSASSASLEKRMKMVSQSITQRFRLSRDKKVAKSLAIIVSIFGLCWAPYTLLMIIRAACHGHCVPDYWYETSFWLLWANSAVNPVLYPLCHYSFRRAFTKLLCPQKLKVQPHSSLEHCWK
T1 sequence (Q9Y5N1 whole entry): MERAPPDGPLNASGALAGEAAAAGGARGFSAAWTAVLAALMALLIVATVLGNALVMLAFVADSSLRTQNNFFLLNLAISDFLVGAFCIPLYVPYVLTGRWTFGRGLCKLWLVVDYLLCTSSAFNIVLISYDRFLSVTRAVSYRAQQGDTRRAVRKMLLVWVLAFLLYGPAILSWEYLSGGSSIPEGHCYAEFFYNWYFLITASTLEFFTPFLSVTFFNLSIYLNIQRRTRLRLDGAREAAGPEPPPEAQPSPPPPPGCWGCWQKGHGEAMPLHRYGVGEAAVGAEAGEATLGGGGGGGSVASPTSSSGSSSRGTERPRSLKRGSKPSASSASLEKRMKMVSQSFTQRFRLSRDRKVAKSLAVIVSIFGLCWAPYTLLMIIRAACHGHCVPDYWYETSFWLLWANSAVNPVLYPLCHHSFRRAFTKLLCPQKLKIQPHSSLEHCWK

Structure (SMILES)	Food intake Inhibition (%) (mice fed a high-fat diet)	Weight Gain Inhibition (%) (mice fed a high-fat diet)	Ki [1] [nM]	Ki [2] [nM]
Nc1cc(CN2CCC(Oc3ccc(-n4c(-c5ccccn5)nc5cccnc54)cc3)CC2)ccn1 [Compound 4A]	15.9	74.1	–	–
CN1CCN(c2ccc(OC3CCN(Cc4ccnc(N)c4)CC3)cc2)CC1 [Compound 22A]	11.2	42.4	–	–
Nc1cc(CN2CCC(Oc3ccc(-n4c(C(F)(F)C(F)(F)F)nc5cccnc54)cc3)CC2)ccn1 [Compound 36A]	12.7	58.0	–	–
Nc1cc(CN2CCC(Oc3ccc(-n4c(-c5ncccc5F)nc5cccnc54)cc3)CC2)ccn1 [Compound 69A]	–	–	0.6	18
